From patent US20120328735A1, “PROCESS FOR PREPARING CASEIN-DERIVED PEPTIDES BY FERMENTATION OF LACTIC ACID BACTERIA” (priority 2011, published 2012)
Ends that are not written are not given here.

Tests used:
[1] = tested on: scopolamine-induced amnesia; assay: Y-shaped maze test, spontaneous alternation behavior, scopolamine-induced amnesia; type: in vivo; details: male ddY mice, scopolamine 1 mg/kg s.c.
Description: Male ddY mice (about 7 weeks old) were used (n=15 to 75), and provided with food and water ad libitum. Asn-Ile-Pro-Pro-Leu-Thr-Gln-Thr-Pro-Val-Val-Val-Pro-Pro-Phe-Leu-Gln-Pro-Glu (SEQ ID NO: 1) was used as a test substance in amounts of 0.05 nmol/kg body weight (0.1 μg/kg body weight), 0.5 nmol/kg body weight (1 μg/kg body weight), 1.5 nmol/kg body weight (3 μg/kg body weight), 5 nmol/kg body weight (10 μg/kg body weight), 50 nmol/kg body weight (100 μg/kg body weight), and 500 nmol/kg body weight (1,000 μg/kg body weight). The test substance was administered as a single dose orally to mice 60 minutes before performing a Y-shaped maze test for evaluating spontaneous alternation behavior. Thirty minutes before performing the Y-shaped maze test, scopolamine was subcutaneously administered in an amount of 1 mg/kg body weight into the back to induce brain dysfunction (memory disorder and/or cognition disorder) in mice. In the Y-shaped maze test, as an experiment device, a Y-shaped maze was used in which the length for each arm was 40 cm; the wall height was 12 cm; the floor width was 3 cm; the upper part width was 10 cm; and three arms were connected to each other at an angle of 120°. Each mouse was placed in the end of any of the arms of the Y-shaped maze and allowed to explore freely in the maze over 8 minutes, and the sequence of the arms to which the mouse moved was recorded. The number of movements of the mouse to the arms within the measurement time was counted and used as the total number of entries; in the sequence, the combination in which three different arms were selected in succession (for example, with the three arms respectively called A, B, and C, if the sequence of the aims entered is ABCBACACB, the count is 4 inclusive of overlapping) was investigated, and the count number was used as the number of spontaneous alternation behaviors. The change in spontaneous alternation behavior (%) was calculated by dividing the number of spontaneous alternation behaviors by a number obtained by subtracting 2 from the total number of entries, and multiplying the resultant number by 100, and the percentage was used as an indicator of the spontaneous alternation behavior. […] The measured values were expressed as mean±standard error for each group. The significance of difference between the control group and the scopolamine control group was tested by Student's t-test. The significance of difference between the scopolamine control group and the peptide-administered group was tested by Dunnett's multiple comparison test after one-way analysis of variance.
Male ddY mice (about 7 weeks old) were used (n=15 to 45), and provided with food and water ad libitum. As test substances, Asn-Ile-Pro-Pro-Leu-Thr-Gln-Thr-Pro-Val-Val-Val-Pro-Pro-Phe-Leu-Gln-Pro-Glu (SEQ ID NO: 1) at 50 nmol/kg body weight (100 μg/kg body weight), or […]([…]; SEQ ID NO: 2) at 50 nmol/kg body weight (120 μg/kg body weight), or Ile-Pro-Pro-Leu-Thr-Gln-Thr-Pro-Val-Val-Val-Pro-Pro-Phe-Leu-Gln-Pro-Glu (IPPLTQTPVVVPPFLQPE; SEQ ID NO: 7) at 50 nmol/kg body weight (100 μg/kg body weight), or Asn-Ile-Pro-Pro-Leu-Thr-Gln-Thr-Pro-Val-Val-Val-Pro-Pro-Phe-Leu-Gln-Pro (NIPPLTQTPVVVPPFLQP; SEQ ID NO: 8) at 50 nmol/kg body weight (100 μg/kg body weight), or Thr-Gln-Thr-Pro-Val-Val-Val-Pro-Pro-Phe (TQTPVVVPPF; SEQ ID NO: 9) at 50 nmol/kg body weight (50 μg/kg body weight) were used. The percentage of change in the spontaneous alternation behavior was determined as described in Example 4, and used as an indicator of the spontaneous alternation behavior. The measured values were expressed as mean±standard error for each group. The significance of difference between the control group and the scopolamine control group was tested by Student's t-test. The significance of difference between the scopolamine control group and each peptide-administered group was tested by Dunnett's multiple comparison test after one-way analysis of variance. […]

memory retention = assay: novel object recognition test for evaluating memory retention; type: in vivo; details: male ddY mice; single oral dose 500 nmol/kg body weight (1,000 μg/kg) 60 min before training trial; retention trial 48 hours later; FIG. 5
Description: Male ddY mice (about 7 weeks old) were used (n=14 to 15), and provided with food and water ad libitum. As a test substance, 500 nmol/kg body weight (1,000 μg/kg body weight) of Asn-Ile-Pro-Pro-Leu-Thr-Gln-Thr-Pro-Val-Val-Val-Pro-Pro-Phe-Leu-Gln-Pro-Glu (SEQ ID NO: 1) was used. The test substance was administered as a single dose orally to mice 60 minutes before performing a novel object recognition test for evaluating memory retention. In the novel object recognition test, a 30×30×30 cm box was used as an experiment device. As a conditioning operation, a mouse was placed in an experiment device in which a floorcloth was laid for 5 minutes, and allowed to explore freely in the device. A training trial was performed the day following the conditioning operation. […] Sixty minutes after orally administering the test substance or water, a mouse was placed in the experiment device for 5 minutes, and the time (second) was measured during which the mouse explored by approaching each object to be within 1 cm therefrom. […] (However, the state in which a mouse rides on an object is excluded.) The percentages of the times were determined during which two objects were explored in each of the training trial and the retention trial. The percentage (%) of the exploration time for each object was expressed as mean±standard error for each of the groups. […]

[2] = single oral dose 50 nmol/kg body weight, vs scopolamine control group, FIG. 3, FIG. 6
[3] = single oral dose 500 nmol/kg body weight, vs scopolamine control group, FIG. 4, FIG. 7, FIG. 9

Row | Sequence | amnesia-preventing action (change in spontaneous alternation behavior) [1, 2] | amnesia-preventing action (change in spontaneous alternation behavior) [1, 3] | also measured
1 | IPPLTQTPVVVPPFLQPE [SEQ ID NO: 7] | shown to have amnesia-preventing actions |  | 
2 | LQSWMHQPHQPLPPTVMFPPQSVL [SEQ ID NO: 4] |  | shown to have amnesia-preventing actions | 
3 | LTQTPVVVPPFLQPE [SEQ ID NO: 13] |  | shown to have amnesia-preventing actions | 
4 | MHQPHQPLPPTVMFPPQSVL [SEQ ID NO: 16] |  | shown to have amnesia-preventing actions | 
5 | NIPPLTQTPVVVPPFLQP [SEQ ID NO: 8] | significant difference compared to the scopolamine control group could not be confirmed |  | 
6 | NIPPLTQTPVVVPPFLQPE [SEQ ID NO: 1] | shown to have amnesia-preventing actions | shown to have amnesia-preventing actions | amnesia-preventing action (change in spontaneous alternation behavior) ([1]; single oral dose 60 min before test, 0.05 nmol/kg body weight to 500 nmol/kg body weight (0.1 to 1,000 μg/kg), FIG. 2): shown to have an amnesia-preventing action; memory-enhancing action (percentage of exploration time for novel object) (memory retention): shown to have a memory-enhancing action
7 | NIPPLTQTPVVVPPFLQPEVM [SEQ ID NO: 2] | shown to have amnesia-preventing actions |  | 
8 | PLTQTPVVVPPFLQPE [SEQ ID NO: 12] |  | shown to have amnesia-preventing actions | 
9 | PPLTQTPVVVPPFLQPE [SEQ ID NO: 10] |  | shown to have amnesia-preventing actions | 
10 | PVVVPPFLQPE [SEQ ID NO: 14] |  | shown to have amnesia-preventing actions | 
11 | SWMHQPHQPLPPTVMFPPQ [SEQ ID NO: 17] |  | significant difference could not be confirmed | 
12 | SWMHQPHQPLPPTVMFPPQSVL [SEQ ID NO: 3] |  | shown to have amnesia-preventing actions | amnesia-preventing action (change in spontaneous alternation behavior) ([1]; single oral dose 150 nmol/kg body weight to 500 nmol/kg body weight (380 to 1,280 μg/kg), FIG. 8): shown to have an amnesia-preventing action
13 | TQTPVVVPPF [SEQ ID NO: 9] | significant difference compared to the scopolamine control group could not be confirmed |  | 
14 | TQTPVVVPPFLQPE [SEQ ID NO: 11] | shown to have an amnesia-preventing action |  | 
15 | VVVPPFLQPE [SEQ ID NO: 15] |  | shown to have amnesia-preventing actions | 
